Results on one molecule are retold here after patent US9295739B2, “Folate conjugates of albumin-binding entities” (MERCK & CIE, priority 2011, dated 2016).

A short description of data set [1]: log D7.4 by the shake flask method. The class given is physicochemical.
The test system of another data set is KB tumor xenografts. Nature of the data set: Ex vivo biodistribution of [18F]FDG-AB-folate in nude mice bearing KB tumor xenografts. Conditions: 2 h p.i., n = 3. As to the method: In vivo experiments were performed in female nude mice bearing KB tumor xenografts.
Animals were injected with ˜3 MBq of [^18F]FDG-AB-folate 34 via a lateral tail vein. Animals were sacrificed 2 h after radiotracer injection. Organs- and tissues were dissected and measured in the γ-counter (Wizard, PerkinElmer). The incorporated radioactivity was expressed as percentage injected dose (% ID) per gram of tissue.

In the case of `Nc1nc2ncc(CNc3ccc(C(=O)N[C@@H](CCC(=O)NC(Cc4cn([C@@H]5OC(CO)[C@@H](O)[C@H](O)C5[18F])nn4)C(=O)N[C@@H](CCCCNC(=O)CCCc4ccc(I)cc4)C(=O)O)C(=O)O)cc3)nc2c(=O)[nH]1` (stereo partly shown) [[^18F]FDG-AB-folate], the “log D7.4 value” in data set [1] was −3.2±0.4. In the data set with KB tumor xenografts, the Blood was found to be 2.93 ± 0.55 % ID/g, the Bone turned out to be 1.50 ± 0.24 % ID/g, the Brain was 0.89 ± 0.17 % ID/g and the Feces was 53.02 ± 26.52 % ID/g. Also, in the data set on KB tumor xenografts, the Gallbladder was 83.78 ± 16.78 % ID/g, the Heart worked out at 3.20 ± 0.53 % ID/g, the Intestine was found to be 8.84 ± 7.07 % ID/g and the Kidneys is listed as 14.98 ± 1.47 % ID/g. Moreover, in the data set on KB tumor xenografts, the Liver came out at 7.14 ± 0.78 % ID/g, the Lungs was 2.44 ± 0.58 % ID/g, the Muscle was 1.62 ± 0.26 % ID/g and the “Ratio Tumor/Blood” value is 3.33 ± 0.59. In the data set with KB tumor xenografts, the “Ratio Tumor/Kidneys” value stood at 0.64 ± 0.07, the “Ratio Tumor/Liver” value worked out at 1.34 ± 0.16, the Salivary glands is recorded as 7.55 ± 0.08 % ID/g and the Spleen is 0.81 ± 0.03 % ID/g. Moreover, in the data set with KB tumor xenografts, the Stomach turned out to be 1.93 ± 0.51 % ID/g and the Tumor worked out at 9.51 ± 0.08 % ID/g.
